# Results reported in ChEMBL document CHEMBL4804286, “3-amino-4-(4-(4 (dimethylcarbamoyl) phenyl)-1,4-diazepan-1-yl) thieno [2,3-b] pyridine-2-carboxamide for use in cancer therapy and formulations comprising the same” (2020).
# Where “and” joins values, the source holds several entries; their conditions need not be identical. Equal entries are not always repeated.
# Assays:
# Set-up in all cases: scale not given: the % may be the effect or the level left
# [1] = test system: Tyrosine-protein kinase ABL1 (Homo sapiens), P00519 [Q252H]; experiment: Inhibition of phosphorylated human ABL1 Q252H mutant assessed as percent of control at 2000 nM by KINOMEscan assay relative to control
# [2] = target: Atypical kinase COQ8B, mitochondrial (Homo sapiens) (UniProt Q96D53); experiment: Inhibition of human ADCK4 assessed as percent of control at 2000 nM by KINOMEscan assay relative to control
# [3] = target: 5'-AMP-activated protein kinase catalytic subunit alpha-1 (Homo sapiens) (UniProt Q13131); experiment: Inhibition of human AMPK-alpha1 assessed as percent of control at 2000 nM by KINOMEscan assay relative to control
# [4] = target: Serine/threonine-protein kinase BRSK1 (Homo sapiens) (UniProt Q8TDC3); experiment: Inhibition of human BRSK1 assessed as percent of control at 2000 nM by KINOMEscan assay relative to control
# [5] = target: Calcium/calmodulin-dependent protein kinase type II subunit delta (Homo sapiens) (UniProt Q13557); experiment: Inhibition of human CAMK2D assessed as percent of control at 2000 nM by KINOMEscan assay relative to control
# [6] = target: Calcium/calmodulin-dependent protein kinase type II subunit gamma (Homo sapiens) (UniProt Q13555); experiment: Inhibition of human CAMK2G assessed as percent of control at 2000 nM by KINOMEscan assay relative to control
# [7] = target: Casein kinase I isoform gamma-2 (Homo sapiens) (UniProt P78368); experiment: Inhibition of human CSNK1G2 assessed as percent of control at 2000 nM by KINOMEscan assay relative to control
# [8] = test system: Epidermal growth factor receptor (Homo sapiens), P00533 [L858R]; experiment: Inhibition of human EGFR L858R mutant assessed as percent of control at 2000 nM by KINOMEscan assay relative to control
# [9] = test system: Epidermal growth factor receptor (Homo sapiens), P00533 [L858R,T790M]; experiment: Inhibition of human EGFR L858R/T790M double mutant assessed as percent of control at 2000 nM by KINOMEscan assay relative to control
# [10] = target: Tyrosine-protein kinase Fer (Homo sapiens) (UniProt P16591); experiment: Inhibition of human FER assessed as percent of control at 2000 nM by KINOMEscan assay relative to control
# [11] = target: Rhodopsin kinase GRK1 (Homo sapiens) (UniProt Q15835); experiment: Inhibition of human GRK1 assessed as percent of control at 2000 nM by KINOMEscan assay relative to control
# [12] = target: Insulin receptor (Homo sapiens) (UniProt P06213); experiment: Inhibition of human INSR assessed as percent of control at 2000 nM by KINOMEscan assay relative to control
# [13] = target: MAP/microtubule affinity-regulating kinase 4 (Homo sapiens) (UniProt Q96L34); experiment: Inhibition of human MARK4 assessed as percent of control at 2000 nM by KINOMEscan assay relative to control
# [14] = target: Dual specificity mitogen-activated protein kinase kinase 1 (Homo sapiens) (UniProt Q02750); experiment: Inhibition of human MEK1 assessed as percent of control at 2000 nM by KINOMEscan assay relative to control
# [15] = target: Maternal embryonic leucine zipper kinase (Homo sapiens) (UniProt Q14680); experiment: Inhibition of human MELK assessed as percent of control at 2000 nM by KINOMEscan assay relative to control
# [16] = target: Serine/threonine-protein kinase 26 (Homo sapiens) (UniProt Q9P289); experiment: Inhibition of human MST4 assessed as percent of control at 2000 nM by KINOMEscan assay relative to control
# [17] = target: Serine/threonine-protein kinase Nek4 (Homo sapiens) (UniProt P51957); experiment: Inhibition of human NEK4 assessed as percent of control at 2000 nM by KINOMEscan assay relative to control
# [18] = target: Mitogen-activated protein kinase 13 (Homo sapiens) (UniProt O15264); experiment: Inhibition of human p38-delta assessed as percent of control at 2000 nM by KINOMEscan assay relative to control
# [19] = target: Platelet-derived growth factor receptor alpha (Homo sapiens) (UniProt P16234); experiment: Inhibition of human PDGFRA assessed as percent of control at 2000 nM by KINOMEscan assay relative to control
# [20] = target: Serine/threonine-protein kinase PLK2 (Homo sapiens) (UniProt Q9NYY3); experiment: Inhibition of human PLK2 assessed as percent of control at 2000 nM by KINOMEscan assay relative to control
# [21] = target: Protein kinase C eta type (Homo sapiens) (UniProt P24723); experiment: Inhibition of human PRKCH assessed as percent of control at 2000 nM by KINOMEscan assay relative to control
# [22] = target: Serine/threonine-protein kinase D3 (Homo sapiens) (UniProt O94806); experiment: Inhibition of human PRKD3 assessed as percent of control at 2000 nM by KINOMEscan assay relative to control
# [23] = target: cAMP-dependent protein kinase catalytic subunit PRKX (Homo sapiens) (UniProt P51817); experiment: Inhibition of human PRKX assessed as percent of control at 2000 nM by KINOMEscan assay relative to control
# [24] = target: Ribosomal protein S6 kinase alpha-5 (Homo sapiens) (UniProt O75582); experiment: Inhibition of human C-terminal RPS6KA5 kinase domain 2 assessed as percent of control at 2000 nM by KINOMEscan assay relative to control
# [25] = target: Ribosomal protein S6 kinase alpha-3 (Homo sapiens) (UniProt P51812); experiment: Inhibition of human C-terminal RSK2 kinase domain 2 assessed as percent of control at 2000 nM by KINOMEscan assay relative to control
# [26] = target: Ribosomal protein S6 kinase alpha-6 (Homo sapiens) (UniProt Q9UK32); experiment: Inhibition of human N-terminal RSK4 kinase domain 1 assessed as percent of control at 2000 nM by KINOMEscan assay relative to control
# [27] = target: Serine/threonine-protein kinase Sgk2 (Homo sapiens) (UniProt Q9HBY8); experiment: Inhibition of human SGK2 assessed as percent of control at 2000 nM by KINOMEscan assay relative to control
# [28] = target: Serine/threonine-protein kinase SIK1 (Homo sapiens) (UniProt P57059); experiment: Inhibition of human SIK assessed as percent of control at 2000 nM by KINOMEscan assay relative to control
# [29] = target: Tyrosine-protein kinase Tec (Homo sapiens) (UniProt P42680); experiment: Inhibition of human TEC assessed as percent of control at 2000 nM by KINOMEscan assay relative to control
# [30] = target: TGF-beta receptor type-2 (Homo sapiens) (UniProt P37173); experiment: Inhibition of human TGFBR2 assessed as percent of control at 2000 nM by KINOMEscan assay relative to control
# [31] = target: Serine/threonine-protein kinase ULK2 (Homo sapiens) (UniProt Q8IYT8); experiment: Inhibition of human ULK2 assessed as percent of control at 2000 nM by KINOMEscan assay relative to control
# Chain of Mitogen-activated protein kinase 13 (Homo sapiens) (O15264 whole entry): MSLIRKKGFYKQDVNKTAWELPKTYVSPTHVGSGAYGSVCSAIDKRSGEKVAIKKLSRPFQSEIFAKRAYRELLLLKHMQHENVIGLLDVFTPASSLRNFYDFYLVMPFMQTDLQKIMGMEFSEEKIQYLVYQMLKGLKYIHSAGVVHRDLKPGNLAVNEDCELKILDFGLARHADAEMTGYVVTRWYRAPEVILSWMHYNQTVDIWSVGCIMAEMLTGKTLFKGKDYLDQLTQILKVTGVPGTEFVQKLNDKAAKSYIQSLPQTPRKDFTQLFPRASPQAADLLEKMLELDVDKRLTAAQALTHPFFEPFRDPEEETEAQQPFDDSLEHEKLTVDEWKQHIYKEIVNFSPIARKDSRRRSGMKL
# Chain of Atypical kinase COQ8B, mitochondrial (Homo sapiens) (Q96D53 whole entry): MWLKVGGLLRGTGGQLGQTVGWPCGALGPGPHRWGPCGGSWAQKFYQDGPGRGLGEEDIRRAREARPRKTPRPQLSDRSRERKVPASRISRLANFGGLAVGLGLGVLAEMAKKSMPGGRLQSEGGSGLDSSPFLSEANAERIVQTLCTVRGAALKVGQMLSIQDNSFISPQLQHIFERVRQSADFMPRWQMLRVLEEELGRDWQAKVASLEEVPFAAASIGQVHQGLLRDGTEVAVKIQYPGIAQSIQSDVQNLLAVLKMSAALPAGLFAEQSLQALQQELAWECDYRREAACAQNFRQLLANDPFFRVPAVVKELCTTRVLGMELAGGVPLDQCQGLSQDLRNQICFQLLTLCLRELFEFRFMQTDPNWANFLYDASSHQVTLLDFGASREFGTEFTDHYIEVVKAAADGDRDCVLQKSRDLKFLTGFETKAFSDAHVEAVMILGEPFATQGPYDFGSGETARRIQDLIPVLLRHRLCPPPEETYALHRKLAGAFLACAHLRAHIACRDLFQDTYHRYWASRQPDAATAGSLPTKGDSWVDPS
# Chain of Platelet-derived growth factor receptor alpha (Homo sapiens) (P16234 whole entry): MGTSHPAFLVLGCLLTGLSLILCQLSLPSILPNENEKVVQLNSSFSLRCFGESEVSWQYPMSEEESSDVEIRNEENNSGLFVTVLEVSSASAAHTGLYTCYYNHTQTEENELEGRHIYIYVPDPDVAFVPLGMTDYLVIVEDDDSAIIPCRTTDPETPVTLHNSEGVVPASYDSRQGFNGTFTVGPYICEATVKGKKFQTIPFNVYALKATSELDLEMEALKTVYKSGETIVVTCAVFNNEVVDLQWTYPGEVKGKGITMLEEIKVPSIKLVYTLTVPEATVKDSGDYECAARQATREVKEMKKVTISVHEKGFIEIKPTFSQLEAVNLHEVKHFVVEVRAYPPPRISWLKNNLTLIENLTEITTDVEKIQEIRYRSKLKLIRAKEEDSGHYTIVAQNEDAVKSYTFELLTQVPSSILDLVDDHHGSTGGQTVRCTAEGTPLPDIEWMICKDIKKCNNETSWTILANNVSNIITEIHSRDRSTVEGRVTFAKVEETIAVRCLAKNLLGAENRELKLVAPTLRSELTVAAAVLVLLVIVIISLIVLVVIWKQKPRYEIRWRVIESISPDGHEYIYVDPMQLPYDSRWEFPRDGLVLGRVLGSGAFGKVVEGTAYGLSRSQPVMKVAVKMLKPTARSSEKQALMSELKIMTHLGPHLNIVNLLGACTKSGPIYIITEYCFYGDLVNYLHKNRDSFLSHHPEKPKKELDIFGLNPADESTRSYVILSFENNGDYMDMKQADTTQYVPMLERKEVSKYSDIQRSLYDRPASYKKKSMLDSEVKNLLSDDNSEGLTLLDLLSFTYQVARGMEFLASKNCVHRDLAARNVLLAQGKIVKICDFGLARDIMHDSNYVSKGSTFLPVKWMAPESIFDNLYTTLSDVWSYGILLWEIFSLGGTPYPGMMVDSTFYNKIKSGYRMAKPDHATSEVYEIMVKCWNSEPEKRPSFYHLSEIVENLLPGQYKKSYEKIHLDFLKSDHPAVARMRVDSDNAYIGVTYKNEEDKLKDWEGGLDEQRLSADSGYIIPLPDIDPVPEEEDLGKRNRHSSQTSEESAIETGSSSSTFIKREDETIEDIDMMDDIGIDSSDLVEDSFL
# Chain of Protein kinase C eta type (Homo sapiens) (P24723 whole entry): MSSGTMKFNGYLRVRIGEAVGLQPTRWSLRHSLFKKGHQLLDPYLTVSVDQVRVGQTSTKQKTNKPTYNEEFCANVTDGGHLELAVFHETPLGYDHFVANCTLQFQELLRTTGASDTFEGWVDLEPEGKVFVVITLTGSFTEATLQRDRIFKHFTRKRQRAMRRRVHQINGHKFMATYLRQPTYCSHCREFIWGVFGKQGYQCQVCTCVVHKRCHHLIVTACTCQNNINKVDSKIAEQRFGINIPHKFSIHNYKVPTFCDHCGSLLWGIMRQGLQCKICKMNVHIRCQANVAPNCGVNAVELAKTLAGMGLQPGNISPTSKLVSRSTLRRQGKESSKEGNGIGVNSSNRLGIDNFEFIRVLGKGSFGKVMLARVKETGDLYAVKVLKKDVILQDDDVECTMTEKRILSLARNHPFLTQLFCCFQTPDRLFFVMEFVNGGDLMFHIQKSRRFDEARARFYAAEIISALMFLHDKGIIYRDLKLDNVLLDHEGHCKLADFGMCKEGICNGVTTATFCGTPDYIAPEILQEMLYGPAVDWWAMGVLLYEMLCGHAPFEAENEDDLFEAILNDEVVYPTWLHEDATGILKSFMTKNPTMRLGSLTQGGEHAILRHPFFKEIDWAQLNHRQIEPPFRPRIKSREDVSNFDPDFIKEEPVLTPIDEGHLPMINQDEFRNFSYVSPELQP
# Chain of Calcium/calmodulin-dependent protein kinase type II subunit delta (Homo sapiens) (Q13557 whole entry): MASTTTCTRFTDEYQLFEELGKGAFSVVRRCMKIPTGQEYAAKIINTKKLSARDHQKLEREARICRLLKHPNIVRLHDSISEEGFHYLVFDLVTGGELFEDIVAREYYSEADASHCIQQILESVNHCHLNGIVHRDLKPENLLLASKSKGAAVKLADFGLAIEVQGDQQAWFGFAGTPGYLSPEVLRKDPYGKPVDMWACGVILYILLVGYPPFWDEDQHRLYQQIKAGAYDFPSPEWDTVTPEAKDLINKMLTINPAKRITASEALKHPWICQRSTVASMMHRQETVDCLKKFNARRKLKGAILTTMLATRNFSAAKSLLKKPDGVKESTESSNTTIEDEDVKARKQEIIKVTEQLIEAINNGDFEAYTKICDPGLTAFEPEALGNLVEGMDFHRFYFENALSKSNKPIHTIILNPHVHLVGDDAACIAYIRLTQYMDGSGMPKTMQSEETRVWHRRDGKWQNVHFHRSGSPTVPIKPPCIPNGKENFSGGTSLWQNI
# Chain of Insulin receptor (Homo sapiens) (P06213 28-758 limits assumed): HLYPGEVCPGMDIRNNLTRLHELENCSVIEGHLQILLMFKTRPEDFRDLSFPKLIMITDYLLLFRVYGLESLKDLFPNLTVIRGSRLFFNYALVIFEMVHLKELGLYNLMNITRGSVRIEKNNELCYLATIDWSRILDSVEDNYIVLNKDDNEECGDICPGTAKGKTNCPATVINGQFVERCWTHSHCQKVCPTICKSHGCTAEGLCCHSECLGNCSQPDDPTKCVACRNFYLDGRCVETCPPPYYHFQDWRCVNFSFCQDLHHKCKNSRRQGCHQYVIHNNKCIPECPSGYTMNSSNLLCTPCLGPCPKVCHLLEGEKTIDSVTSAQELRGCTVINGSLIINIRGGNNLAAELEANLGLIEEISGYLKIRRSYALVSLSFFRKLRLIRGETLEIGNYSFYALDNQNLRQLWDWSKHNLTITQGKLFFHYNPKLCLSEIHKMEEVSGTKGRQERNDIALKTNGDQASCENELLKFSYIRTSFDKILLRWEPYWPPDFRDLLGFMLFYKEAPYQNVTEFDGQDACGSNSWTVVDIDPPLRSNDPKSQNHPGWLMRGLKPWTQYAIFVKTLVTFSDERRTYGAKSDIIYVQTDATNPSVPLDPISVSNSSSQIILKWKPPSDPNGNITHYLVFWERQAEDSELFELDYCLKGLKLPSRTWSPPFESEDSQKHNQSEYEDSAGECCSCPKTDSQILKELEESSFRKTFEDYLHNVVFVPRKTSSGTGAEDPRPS
# Chain of Insulin receptor (Homo sapiens) (P06213 763-1382 limits assumed): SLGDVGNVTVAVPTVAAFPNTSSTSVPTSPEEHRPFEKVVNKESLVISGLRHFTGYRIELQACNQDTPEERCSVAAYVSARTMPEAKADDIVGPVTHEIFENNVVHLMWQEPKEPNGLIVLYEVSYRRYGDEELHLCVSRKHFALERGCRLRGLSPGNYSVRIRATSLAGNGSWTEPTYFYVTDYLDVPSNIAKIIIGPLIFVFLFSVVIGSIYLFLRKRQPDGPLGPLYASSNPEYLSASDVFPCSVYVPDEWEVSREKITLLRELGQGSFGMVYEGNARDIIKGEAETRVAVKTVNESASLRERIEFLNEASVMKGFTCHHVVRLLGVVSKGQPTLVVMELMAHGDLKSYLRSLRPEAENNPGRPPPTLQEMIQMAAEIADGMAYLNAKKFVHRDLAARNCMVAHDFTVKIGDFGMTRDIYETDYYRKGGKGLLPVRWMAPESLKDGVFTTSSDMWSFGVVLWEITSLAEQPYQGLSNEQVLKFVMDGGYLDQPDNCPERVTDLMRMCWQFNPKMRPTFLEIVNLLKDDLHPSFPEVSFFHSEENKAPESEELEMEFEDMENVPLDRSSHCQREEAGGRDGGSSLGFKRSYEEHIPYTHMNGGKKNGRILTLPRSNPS
# Chain of Serine/threonine-protein kinase 26 (Homo sapiens) (Q9P289 2-416 limits assumed): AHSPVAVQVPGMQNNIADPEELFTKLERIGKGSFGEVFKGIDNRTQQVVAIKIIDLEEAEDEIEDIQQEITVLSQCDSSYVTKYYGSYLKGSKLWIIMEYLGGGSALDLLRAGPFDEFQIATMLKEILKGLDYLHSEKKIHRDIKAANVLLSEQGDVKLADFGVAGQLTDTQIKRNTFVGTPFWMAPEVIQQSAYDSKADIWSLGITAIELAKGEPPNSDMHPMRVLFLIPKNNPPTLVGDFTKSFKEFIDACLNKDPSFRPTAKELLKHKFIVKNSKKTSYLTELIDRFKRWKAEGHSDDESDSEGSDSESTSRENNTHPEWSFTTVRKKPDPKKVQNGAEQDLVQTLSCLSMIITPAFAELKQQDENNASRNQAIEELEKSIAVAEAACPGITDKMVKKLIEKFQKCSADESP
smiles,measurement,setting,value
CN(C)C(=O)c1ccc(N2CCCN(c3ccnc4sc(C(N)=O)c(N)c34)CC2)cc1,Activity,[1],94% and 83%
same,Activity,[2],95% and 83%
same,Activity,[3],100%
same,Activity,[4],86% and 97%
same,Activity,[5],99% and 92%
same,Activity,[6],100%
same,Activity,[7],77% and 69%
same,Activity,[8],99% and 93%
same,Activity,[9],100% and 87%
same,Activity,[10],99% and 100%
same,Activity,[11],98% and 81%
same,Activity,[12],97% and 80%
same,Activity,[13],100% and 98%
same,Activity,[14],93% and 83%
same,Activity,[15],75% and 84%
same,Activity,[16],95% and 89%
same,Activity,[17],100% and 95%
same,Activity,[18],96% and 97%
same,Activity,[19],70% and 65%
same,Activity,[20],100% and 86%
same,Activity,[21],80% and 96%
same,Activity,[22],94% and 100%
same,Activity,[23],94% and 95%
same,Activity,[24],95% and 100%
same,Activity,[25],94% and 92%
same,Activity,[26],78% and 80%
same,Activity,[27],100% and 81%
same,Activity,[28],84% and 79%
same,Activity,[29],91% and 81%
same,Activity,[30],100%
same,Activity,[31],90% and 83%
